Source: patent publication US12565489B2, “Heterocyclyl pyrimidines and triazines as novel fungicides” (Bayer Aktiengesellschaft, priority 2020, dated 2026)

What was measured:
Pyrenophora teres = Pyrenophora teres in vitro cell test; assay type: cell-based; details: 144 h, 20 ppm of active ingredient, 6 days incubation, liquid culture, spectrometric measurement of mycelium growth, read-out: efficacy (inhibition of fungal growth)
Method: (§1) • Solvent: DMSO • Culture medium: 14.6 g anhydrous D-glucose (VWR), 7.1 g Mycological Peptone (Oxoid), 1.4 g granulated Yeast Extract (Merck), QSP 1 liter • Inoculum: spore suspension Fungicides were solubilized in DMSO and the solution used to prepare the required range of concentrations. […] A spore suspension of P. teres was prepared and diluted to the desired spore density. Fungicides were evaluated for their ability to inhibit spore germination and mycelium growth in liquid culture assay. The compounds were added in the desired concentration to the culture medium with spores. After 6 days incubation, fungi-toxicity of compounds was determined by spectrometric measurement of mycelium growth. Inhibition of fungal growth was determined by comparing the absorbance values in wells containing the fungicides with the absorbance in control wells without fungicides.

[1] = Measurement of Log P values by HPLC on reversed phase columns (EEC directive 79/831 Annex V.A8); assay type: physicochemical; details: LogP
Method: Measurement of Log P values as provided herein was performed according to EEC directive 79/831 Annex V.A8 by HPLC (High Performance Liquid Chromatography) on reversed phase columns with the following methods: • ^[a] Log P value is determined by measurement of LC-UV, in an acidic range, with 0.1% formic acid in water and acetonitrile as eluent (linear gradient from 10% acetonitrile to 95% acetonitrile). • ^[b] Log P value is determined by measurement of LC-UV, in a neutral range, with 0.001 molar ammonium acetate solution in water and acetonitrile as eluent (linear gradient from 10% acetonitrile to 95% acetonitrile). • ^[c] Log P value is determined by measurement of LC-UV, in an acidic range, with 0.1% phosphoric acid and acetonitrile as eluent (linear gradient from 10% acetonitrile to 95% acetonitrile).
If more than one Log P value is available within the same method, all the values are given and separated by “+”.
Calibration was done with straight-chain alkan2-ones (with 3 to 16 carbon atoms) with known Log P values (measurement of Log P values using retention times with linear interpolation between successive alkanones). Lambda-max-values were determined using UV-spectra from 200 nm to 400 nm and the peak values of the chromatographic signals

Alternaria alternata = Alternaria alternata in vitro cell test; assay type: cell-based; details: 120 h, 20 ppm of active ingredient, 5 days incubation, liquid culture, spectrometric measurement of mycelium growth, read-out: efficacy (inhibition of fungal growth)
Method: as §1, with “of A. alternata” for “of P. teres”, “After 5” for “After 6”

Botrytis cinerea [2] = experiment: In vivo preventive test on Botrytis cinerea (grey mould); details: 500 ppm of active ingredient, preventive spray on young gherkin or cabbage plants, evaluated 4 to 5 days after inoculation, read-out: efficacy
Method: (§2) The active ingredients were made soluble and homogenized in a mixture of Dimethyl sulfoxide/Acetone//Tween®80 and then diluted in water to the desired concentration. The young plants of gherkin or cabbage were treated by spraying the active ingredient prepared as described above. Control plants were treated only with an aqueous solution of Acetone/Dimethyl sulfoxide/Tween® 80. After 24 hours, the plants were contaminated by spraying the leaves with an aqueous suspension of Botrytis cinerea spores.

Botrytis cinerea [3] = experiment: Botrytis cinerea in vitro cell test; assay type: cell-based; details: 144 h, 20 ppm of active ingredient, 6 days incubation, liquid culture, spectrometric measurement of mycelium growth, read-out: efficacy (inhibition of fungal growth)
Method: (§3) • Solvent: DMSO • Culture medium: 1 g KH2PO4 (VWR), 1 g K2HPO4 (VWR), 0.5 g Urea (VWR), 3 g KNO3 (Prolabo), 10 g saccharose (VWR), 0.5 g MgSO4, 7H2O (Sigma), 0.07 g CaCl2, 2H2O (Prolabo), 0.2 mg MnSO4, H2O (Sigma), 0.6 mg CuSO4, 5H2O (Sigma), 7.9 mg ZnSO4, 7H2O (Sigma), 0.1 mg H3BO3 (Merck), 0.14 mg NaMoO4, 2H2O (Sigma), 2 mg thiamine (Sigma), 0.1 mg biotine (VWR), 4 mg FeSO4, 7H2O (Sigma), QSP 1 liter • Inoculum: spore suspension Fungicides were solubilized in DMSO and the solution used to prepare the required range of concentrations. […] A spore suspension of B. cinerea was prepared and diluted to the desired spore density. Fungicides were evaluated for their ability to inhibit spore germination and mycelium growth in liquid culture assay. The compounds were added in the desired concentration to the culture medium with spores. After 6 days incubation, fungi-toxicity of compounds was determined by spectrometric measurement of mycelium growth. Inhibition of fungal growth was determined by comparing the absorbance values in wells containing the fungicides with the absorbance in control wells without fungicides.

Septoria tritici = Septoria tritici in vitro cell test; assay type: cell-based; details: Zymoseptoria tritici, 168 h; 20 ppm of active ingredient; 7 days incubation; liquid culture, spectrometric measurement of mycelium growth; read-out: efficacy (inhibition of fungal growth)
Method: as §3, with “S. tritici” for “B. cinerea”, “After 6 days incubation, fungi-toxicity of compounds was determined by spectrometric measurement of mycelium growth.” left out

Sphaerotheca fuliginea = experiment: In vivo preventive test on Sphaerotheca fuliginea (powdery mildew on cucurbits); details: Podosphaera fuliginea, 192 h; 500 ppm of active ingredient; preventive spray on young gherkin plants; evaluated 8 days after inoculation; read-out: efficacy
Method: as §2, with “gherkin” for “gherkin or cabbage”, “Sphaerotheca fuliginea” for “Botrytis cinerea”

Alternaria brassicae = experiment: In vivo preventive test on Alternaria brassicae (leaf spot on radish or cabbage); details: 144 h, 500 ppm of active ingredient, preventive spray on young radish or cabbage plants, evaluated 6 days after inoculation, read-out: efficacy
Method: as §2, with “radish” for “gherkin”, “Alternaria brassicae” for “Botrytis cinerea”

Pyricularia oryzae = experiment: microbe, parasite or virus in culture; assay type: cell-based; details: 120 h, read-out: efficacy (inhibition of fungal growth)
[4] = tested on: Colletotrichum lindemuthianum; experiment: Colletotrichum lindemuthianum in vitro cell test; assay type: cell-based; details: 144 h, 20 ppm of active ingredient, 6 days incubation, liquid culture, spectrometric measurement of mycelium growth, read-out: efficacy (inhibition of fungal growth)
Method: as §1, with “of C. lindemuthianum” for “of P. teres”, “inhibit spores” for “inhibit spore”

[5] = tested on: Colletotrichum lindemuthianum; experiment: In vivo preventive test on Colletotrichum lindemuthianum (leaf spot on bean); details: 168 h, 500 ppm of active ingredient, preventive spray on young bean plants, evaluated 7 days after inoculation, read-out: efficacy
Method: as §2, with “bean” for “gherkin or cabbage”, “Colletotrichum lindemuthianum” for “Botrytis cinerea”

| SMILES | inhibition at 20 ppm (Pyrenophora teres) [%] | chromatographic logP [1] | inhibition at 20 ppm (Alternaria alternata) [%] | pest or weed control at 500 ppm (Botrytis cinerea [2]) [%] | inhibition at 20 ppm (Botrytis cinerea [3]) [%] | inhibition at 20 ppm (Septoria tritici) [%] | pest or weed control at 500 ppm (Sphaerotheca fuliginea) [%] | pest or weed control at 500 ppm (Alternaria brassicae) [%] | inhibition at 20 ppm (Pyricularia oryzae) [%] | inhibition at 20 ppm [4] [%] | pest or weed control at 500 ppm [5] [%] |
| --- | --- | --- | --- | --- | --- | --- | --- | --- | --- | --- | --- |
| Cc1ccc(CC2CON=C(c3nc(C)ncc3Oc3cccc([N+](=O)[O-])c3)N2)c(C)c1 (racemic) [Compound I-003, (5RS)-5-(2,4-dimethylbenzyl)-3-[2-methyl-5-(3-nitro-phenoxy)pyrimidin-4-yl]-5,6-dihydro-4H-1,2,4-oxadiazine] | 90 to 100 | 3.78 | 90 to 100 | 90 to 100 | 90 to 100 | 90 to 100 | 80 to 89 | 90 to 100 | 90 to 100 | 90 to 100 |  |
| Cc1ccc(C[C@@H]2CON=C(c3nc(C)ncc3Oc3cccc(OC(F)F)c3)N2)c(C)c1 (racemic) [Compound I-007] | 90 to 100 | 3.94 | 70 to 79 | 90 to 100 | 90 to 100 |  | 90 to 100 | 90 to 100 |  | 90 to 100 | 90 to 100 |
| Cc1ncc(Oc2cccc(Cl)c2)c(C2=NOCC(c3ccc4c(c3)CCC4)N2)n1 (racemic) [Compound I-014, (5RS)-3-[5-(3-chlorophenoxy)-2-methyl-pyrimidin-4-yl]-5-indan-5-yl-5,6-dihydro-4H-1,2,4-oxadiazine] | 90 to 100 | 4.05 | 90 to 100 | 90 to 100 | 90 to 100 | 90 to 100 | 90 to 100 | 90 to 100 | 90 to 100 | 90 to 100 |  |
| Cc1ncc(Oc2cccc(C(F)(F)F)c2)c(C2=NOC[C@@H](Cc3csc(C(F)(F)F)c3)N2)n1 (racemic) [Compound I-015] | 90 to 100 | 4.17 | 70 to 79 | 70 to 79 | 90 to 100 |  | 80 to 89 | 80 to 89 |  | 90 to 100 | 90 to 100 |
| Cc1ncc(Oc2cccc(C(F)(F)F)c2)c(C2=NOC[C@@H](Cc3ccc(OC(F)F)cc3Cl)N2)n1 (racemic) [Compound I-027] | 90 to 100 | 4.15 | 90 to 100 | 90 to 100 | 90 to 100 | 90 to 100 | 90 to 100 | 90 to 100 |  |  | 90 to 100 |
| Cc1ncc(Oc2cccc(Cl)c2)c(C2=NO[C@@H](F)[C@@H](c3ccc(Cl)cc3)N2)n1 (racemic) [Compound I-028] | 90 to 100 | 3.79 | 90 to 100 |  | 90 to 100 | 90 to 100 |  |  | 90 to 100 |  |  |
| Cc1ncc(Oc2cccc(Cl)c2)c(C2=NOC[C@@H](c3ccc4c(c3)OCCO4)N2)n1 (racemic) [Compound I-031] | 90 to 100 | 3.04 | 90 to 100 |  | 90 to 100 |  |  |  | 90 to 100 | 90 to 100 |  |
